ChEMBL document CHEMBL6177932 (J Med Chem, 2024)
Blank lines part the entries; values can stand above or below the compound they belong to. Activity calls are given as the source filed them. No cut-off for these calls is given here.

Assays:
B16-F10 [1] = experiment: Inhibition of class 1 HDAC in mouse B16-F10 cells assessed as induction of H3K9 acetylation at 10 uM measured after 6 hrs by Western blot analysis; format: cell-based
[2] = target: T1, Vitamin D3 receptor (Mus musculus) (UniProt P48281); experiment: Agonist activity at VDR in mouse 4T1 cells assessed as induction of Cyp24a1 gene at 0.1 to 10 uM measured after 24 hrs by RT-qPCR analysis; format: cell-based; settings: filed as agonist, dose 0.1-10 µM
T1 sequence (whole entry): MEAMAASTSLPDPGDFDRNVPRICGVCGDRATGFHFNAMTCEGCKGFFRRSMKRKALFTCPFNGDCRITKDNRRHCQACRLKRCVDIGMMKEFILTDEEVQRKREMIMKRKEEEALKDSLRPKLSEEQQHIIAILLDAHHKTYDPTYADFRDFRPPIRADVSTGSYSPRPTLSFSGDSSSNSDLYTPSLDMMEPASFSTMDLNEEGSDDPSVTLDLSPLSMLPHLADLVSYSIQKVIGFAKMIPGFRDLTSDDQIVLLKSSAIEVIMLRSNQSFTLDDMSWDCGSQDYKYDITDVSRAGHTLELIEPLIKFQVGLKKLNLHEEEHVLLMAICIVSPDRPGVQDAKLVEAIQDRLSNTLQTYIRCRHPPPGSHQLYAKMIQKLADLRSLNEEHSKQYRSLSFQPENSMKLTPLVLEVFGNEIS

[3] = target: T1, Vitamin D3 receptor (Mus musculus); experiment: Agonist activity at VDR in mouse 4TO7 cells assessed as induction of Cyp24a1 gene at 0.1 to 10 uM measured after 24 hrs by RT-qPCR analysis; format: cell-based; settings: filed as agonist, dose 0.1-10 µM
B16-F10 [4] = experiment: Inhibition of class 1 HDAC in mouse B16-F10 cells assessed as induction of H3K27 acetylation at 10 uM measured after 6 hrs by Western blot analysis; format: cell-based
[5] = target: T2, Protein deacetylase HDAC6 (Mus musculus) (UniProt Q9Z2V5); experiment: Inhibition of HDAC6 in mouse B16-F10 cells assessed as induction of tubulin acetylation at 10 uM measured after 6 hrs by Western blot analysis; format: cell-based
T2 sequence (whole entry): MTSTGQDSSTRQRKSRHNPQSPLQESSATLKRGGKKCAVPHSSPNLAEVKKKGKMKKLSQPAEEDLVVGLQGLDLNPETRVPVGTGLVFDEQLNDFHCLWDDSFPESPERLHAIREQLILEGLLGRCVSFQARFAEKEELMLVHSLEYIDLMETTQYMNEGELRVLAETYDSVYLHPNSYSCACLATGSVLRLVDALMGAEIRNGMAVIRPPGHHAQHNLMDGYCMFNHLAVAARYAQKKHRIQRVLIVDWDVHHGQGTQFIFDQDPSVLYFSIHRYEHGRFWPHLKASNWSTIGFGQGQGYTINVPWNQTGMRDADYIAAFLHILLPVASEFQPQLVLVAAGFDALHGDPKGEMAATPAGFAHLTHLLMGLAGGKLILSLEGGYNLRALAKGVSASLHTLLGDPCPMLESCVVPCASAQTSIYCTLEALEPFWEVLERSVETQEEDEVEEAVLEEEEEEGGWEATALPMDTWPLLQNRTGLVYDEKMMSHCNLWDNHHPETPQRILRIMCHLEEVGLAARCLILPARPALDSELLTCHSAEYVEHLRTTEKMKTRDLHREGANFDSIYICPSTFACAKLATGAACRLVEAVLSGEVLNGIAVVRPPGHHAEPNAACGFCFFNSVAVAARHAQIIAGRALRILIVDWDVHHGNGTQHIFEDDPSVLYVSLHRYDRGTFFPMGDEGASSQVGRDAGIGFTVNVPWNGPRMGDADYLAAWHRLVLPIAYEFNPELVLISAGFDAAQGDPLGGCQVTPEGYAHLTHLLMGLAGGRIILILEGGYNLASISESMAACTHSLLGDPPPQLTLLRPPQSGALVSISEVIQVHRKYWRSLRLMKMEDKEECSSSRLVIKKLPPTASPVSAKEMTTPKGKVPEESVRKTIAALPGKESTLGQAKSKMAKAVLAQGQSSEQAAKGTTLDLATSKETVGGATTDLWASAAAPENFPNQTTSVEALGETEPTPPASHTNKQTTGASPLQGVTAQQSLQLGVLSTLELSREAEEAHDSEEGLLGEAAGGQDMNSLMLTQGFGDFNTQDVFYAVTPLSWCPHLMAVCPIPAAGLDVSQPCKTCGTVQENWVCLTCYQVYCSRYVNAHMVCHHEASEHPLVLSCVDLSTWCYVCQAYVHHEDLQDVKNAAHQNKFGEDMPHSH

4TO7 [6] = experiment: Inhibition of class 1 HDAC in mouse 4TO7 cells assessed as induction of H3K27 acetylation at 10 uM measured after 6 hrs by Western blot analysis; format: cell-based
[7] = target: T2, Protein deacetylase HDAC6 (Mus musculus); experiment: Inhibition of HDAC6 in mouse 4TO7 cells assessed as induction of tubulin acetylation at 10 uM measured after 6 hrs by Western blot analysis; format: cell-based
4TO7 [8] = experiment: Inhibition of class 1 HDAC in mouse 4TO7 cells assessed as induction of H3K9 acetylation at 10 uM measured after 6 hrs by Western blot analysis; format: cell-based
4T1 [9] = settings: Mus musculus, time 24.0 hrs
[10] = Toxicity in 4T1 cells implanted BALB/c mouse assessed as body weight loss at 0.2 mg/kg, ip administered daily for 18 days; format: organism-based; settings: in vivo, 432 h, time 18 day
B16-F10 [11] = experiment: Cytotoxicity against mouse B16-F10 cells assessed as reduction in cell viability at 0.01 to 100 uM measured after 24 hrs by RealTime-glo cell viability assay; format: functional, cell-based; settings: dose 0.01-100 µM
4T1 [12] = experiment: Inhibition of class 1 HDAC in mouse 4T1 cells assessed as induction of H3K9 acetylation at 10 uM measured after 6 hrs by Western blot analysis; format: cell-based
[13] = target: T2, Protein deacetylase HDAC6 (Mus musculus); experiment: Inhibition of HDAC6 in mouse 4T1 cells assessed as induction of tubulin acetylation at 10 uM measured after 6 hrs by Western blot analysis; format: cell-based
Mus musculus [14] = experiment: Immunomodulatory activity in mouse 4T1 cells implanted BALB/c mouse assessed as reduction in Cxcl10 gene expression at 0.2 mg/kg, ip administered daily for 18 days by RT-qPCR analysis; format: functional, organism-based; settings: time 18.0 day
Mus musculus [15] = experiment: Immunomodulatory activity in mouse 4T1 cells implanted BALB/c mouse assessed as reduction in Ccl5 gene expression at 0.2 mg/kg, ip administered daily for 18 days by RT-qPCR analysis; format: functional, organism-based; settings: time 18.0 day
B16-F10 [16] = experiment: Antitumor activity against mouse B16-F10 cells implanted in C57BL/6 mouse assessed as reduction in tumor burden at 0.2 mg/kg, ip administered every second day for 18 days; format: functional, organism-based; settings: time 18.0 day
[17] = Toxicity in mouse B16-F10 cells implanted C57BL/6 mouse at 0.2 mg/kg, ip administered daily for 28 days; format: organism-based; settings: in vivo, time 28 day
4T1 [18] = experiment: Inhibition of class 1 HDAC in mouse 4T1 cells assessed as induction of H3K27 acetylation at 10 uM measured after 6 hrs by Western blot analysis; format: cell-based
Mus musculus [19] = experiment: Immunomodulatory activity in mouse 4T1 cells implanted BALB/c mouse assessed as reduction in Ccl2 gene expression at 0.2 mg/kg, ip administered daily for 18 days by RT-qPCR analysis; format: functional, organism-based; settings: time 18.0 day
4T1 [20] = experiment: Antitumor activity against mouse 4T1 cells implanted in BALB/c mouse assessed as reduction in tumor burden at 0.2 mg/kg, ip administered daily for 18 days; format: functional, organism-based; settings: time 18.0 day
Mus musculus [21] = experiment: Immunomodulatory activity in mouse 4T1 cells implanted BALB/c mouse assessed as induction of Il1a gene expression at 0.2 mg/kg, ip administered daily for 18 days by RT-qPCR analysis; format: functional, organism-based; settings: time 18.0 day
Mus musculus [22] = experiment: Immunomodulatory activity in mouse 4T1 cells implanted BALB/c mouse assessed as reduction in Ccl20 gene expression at 0.2 mg/kg, ip administered daily for 18 days by RT-qPCR analysis; format: functional, organism-based; settings: time 18.0 day
[23] = Toxicity in mouse B16-F10 cells implanted C57BL/6 mouse assessed as effect on body weight at 0.2 mg/kg, ip administered daily for 28 days; format: organism-based; settings: in vivo, time 28 day
[24] = Toxicity in 4T1 cells implanted BALB/c mouse assessed as stress at 0.2 mg/kg, ip administered daily for 18 days; format: organism-based; settings: in vivo, 432 h, time 18 day
[25] = Toxicity in mouse B16-F10 cells implanted C57BL/6 mouse assessed as effect on body weight at 50 mg/kg, ip administered daily for 28 days; format: organism-based; settings: in vivo, time 28 day
[26] = Toxicity in mouse B16-F10 cells implanted C57BL/6 mouse at 50 mg/kg, ip administered daily for 28 days; format: organism-based; settings: in vivo, time 28 day
B16-F10 [27] = experiment: Antitumor activity against mouse B16-F10 cells implanted in C57BL/6 mouse assessed as reduction in tumor burden at 50 mg/kg, ip administered every second day for 18 days; format: functional, organism-based; settings: time 18.0 day

- Activity [2]: Active
- Activity [3]: Active
SMILES: CCC(CC)(c1ccc(C(=O)NCCCCCC(=O)NO)cc1)c1ccc(OCC(O)C(C)(C)C)c(C)c1 (configuration not stated)
- inhibition (B16-F10 [1]): Active; High Levels Of Acetylation Observed
- inhibition (B16-F10 [4]): Active; High Levels Of Acetylation Observed
- inhibition [5]: Active; High Levels Of Acetylation Observed

- inhibition [7]: Active
- Activity [3]: Active
SMILES: CCC(CC)(c1ccc(C(=O)NCCCC(=O)NO)cc1)c1ccc(OCC(O)C(C)(C)C)c(C)n1 (configuration not stated)
- inhibition (4TO7 [6]): Active
- Activity [2]: Active; Did Not Appear To Be A Full Agonist
- inhibition (4TO7 [8]): Active
- Activity (4T1 [9]): Active

- inhibition [7]: Active
- Activity [3]: Active
SMILES: CCC(CC)(c1ccc(C(=O)NCCCCCC(=O)NO)cc1)c1ccc(OCC(O)C(C)(C)C)c(C)n1 (configuration not stated)
- inhibition (4TO7 [6]): Active
- Activity [2]: Active; Did Not Appear To Be A Full Agonist
- inhibition (4TO7 [8]): Active
- Activity (4T1 [9]): Active

- inhibition [13]: Active
- Activity [2]: Active
- Activity [3]: Active
SMILES: CCC(CC)(c1ccc(OCCCCCC(=O)NO)cc1)c1ccc(OCC(O)C(C)(C)C)c(C)n1 (configuration not stated)
- Activity [10]: Non-toxic
- Activity (B16-F10 [11]): Active
- inhibition (4T1 [12]): Active
- Activity (Mus musculus [14]): Active
- Activity (Mus musculus [15]): Active
- Activity (B16-F10 [16]): Active
- Activity [17]: Non-toxic
- inhibition (4T1 [18]): Active
- Activity (Mus musculus [19]): Active
- Activity (4T1 [20]): Active
- Activity (Mus musculus [21]): Active
- Activity (Mus musculus [22]): Active
- Activity [23]: Non-toxic
- Activity [24]: Non-toxic

SMILES: Nc1ccn([C@@H]2O[C@H](CO)[C@@H](O)C2(F)F)c(=O)n1 [GEMCITABINE]
- Activity [25]: Non-toxic
- Activity [26]: Non-toxic
- Activity (B16-F10 [27]): Active
